From article PMC10458312, “Xanthones with Potential Anti-Inflammatory and Anti-HIV Effects from the Stems and Leaves of Cratoxylum cochinchinense” (Molecules, 2023)
Like-named read-outs stand apart in the source and are kept apart here.

Assays:
[1] = MTT cytotoxicity assay against C8166 cells; format: cell-based; conditions: human
Experimental: (§1) Anti-HIV-1 activity bioassays
50% DMF-20% SDS (100.0 μL) was added. After the formazan was dissolved completely, the
volume per well was 200.0 μL. Control assays were performed without the testing compounds in
HIV-1IIIB infected and uninfected cultures. […]

[2] = system: HIV-1IIIB; assay: Inhibition assay for the cytopathic effects of HIV-1 (syncytia formation) in C8166 cells; conditions: for TI (therapeutic index) = CC50/EC50: CC50 in C8166 / EC50 against HIV-1; for EC50: Human immunodeficiency virus 1, C8166, 72 h, read-out: EC50 (50% effective concentration), anti-HIV-1
Experimental: All isolated xanthones 1–12 were assessed for their anti-HIV reverse transcriptase (RT) effects according to the inhibition assay for the cytopathic activities of HIV-1 (EC50) as well as the cytotoxic activities assay against C8166 cell line (CC50) according to MTT methods.
All isolated xanthones 1–12 were assessed for their anti-HIV-1 reverse transcriptase (RT) effects in vitro on the basis of the inhibition assay for the cytopathic effects of HIV-1 (EC50), in light of the protocol which is described in detail in the Supplementary Material of our current article, in which AZT (3′-azido-3′-deoxythymidine) was adopted as the positive control. All isolated xanthones 1–12 and the positive control (AZT) were also evaluated for their cytotoxic activities against C8166 cells (CC50) on the basis of the MTT method. […]
as §1
Cytotoxicity against C8166 cells (CC50) was assessed using the MTT method, and anti-HIV-1 activity was evaluated by the inhibition assay for the cytopathic effects of HIV-1 (EC50). Briefly, cells were seeded on a microtiter plate in the absence or presence of various concentrations of compounds in triplicate and incubated at 37 °C in a humid atmosphere of 5% CO2 for three days.
20.0 μL MTT reagent (5.0 mg/mL in PBS) was added to each well, then incubated at 37 °C for 4 h, 50% DMF-20% SDS (100.0 μL) was added. After the formazan was dissolved completely, the plates were read on a Bio-Tek ELx 800 ELISA reader at 595 nm/630 nm (A595/630). The cytotoxic concentration that caused the reduction of viable cells by 50% (CC50) was calculated from dose–response curve. In 100.0 μL various concentrations of compounds, C8166 cells (4×10^5/mL) were infected with virus (HIV-1IIIB) at a multiplicity of infection (M. O. I) of 0.06. The final volume per well was 200.0 μL. Control assays were performed without the testing compounds in HIV-1IIIB infected and uninfected cultures. AZT (3′-azido-3′-deoxythymidine) was used as a positive control. After three days of culture, the cytopathic effect (CPE) was measured by counting the number of syncytia (multinucleated giant cell). Percentage inhibition of syncytia formation was calculated and 50% effective concentration (EC50) was calculated. The therapeutic index (TI) was calculated from the ratio of CC50/EC50.

[3] = system: NO production induced by lipopolysaccharide in mouse macrophage RAW 264.7 cells; assay: Inhibition of NO production induced by lipopolysaccharide in RAW 264.7 cells (Griess reaction); format: cell-based; conditions: RAW264.7, LPS-induced RAW 264.7 cells, 24 h, mean ± SD of triplicate determinations, read-out: IC50 (50% inhibitory concentration on NO production)
[4] = C8166 cells, C8166 cell line, MTT, three days, read-out: CC50 (50% cytotoxic concentration)

Compound	CC50 at 3 days [1] [µM]	TI (therapeutic index) = CC50/EC50 [2]	EC50 [2] [µM]	CC50 at 3 days [1, 4] [µM]	IC50 [3] [µM]
Cc1cn([C@H]2C[C@H](N=[N+]=[N-])[C@@H](CO)O2)c(=O)[nH]c1=O [AZT, 3′-azido-3′-deoxythymidine, reference compound]	4020	193,371.51	0.0208		
C=C(C)C(O)CCC(C)=CCc1c(O)c(CC=C(C)C)c(O)c2c(=O)c3cc(O)ccc3oc12 (stereo not shown) [Compound 1, Cratocochinone A]		>909.09	0.22	> 200	1.29 ± 0.06
COc1ccc2c(=O)c3c(O)cc4c(c3oc2c1O)C(C)(C)C(CO)O4 (stereo not shown) [Compound 2, Cratocochinone B]		>294.12	0.68	> 200	2.17 ± 0.09
COc1ccc2c(=O)c3c(OC)c(OC)c(O)cc3oc2c1O [Compound 3, Cratocochinone C]		>105.82	1.89	> 200	0.86 ± 0.05
COc1ccc2c(=O)c3cc(O)c(OC)c(O)c3oc2c1OC [Compound 4, Cratocochinone D]		>49.14	4.07	> 200	9.42 ± 0.13
CC(C)=CCC/C(C)=C/Cc1c(O)c(CC=C(C)C)c(O)c2c(=O)c3c(O)ccc(O)c3oc12 [Compound 5, 1,3,5,8-tetrahydroxy-2-(3-methybut-2-enyl)-4-(3,7-dimethylocta-2,6-dienyl) xanthone]		>79.05	2.53	> 200	6.47 ± 0.1
CC1(C)c2c(cc(O)c3c(=O)c4ccc(O)c(O)c4oc23)O[C@H]1CO [Compound 6, cochinchinone P]		>64.94	3.08	> 200	8.35 ± 0.15
C[C@@H]1Oc2cc(O)c3c(=O)c4cc(O)c(O)c(O)c4oc3c2C1(C)C [Compound 7, 2-deprenyl-7-hydroxy-rheediaxanthone]		>48.08	4.16	> 200	12.58 ± 0.12
COc1cc2c(c3oc4c5c(ccc4c(=O)c13)OCO5)C=CC(C)(C)O2 [Compound 8, musaxanthone]		>22.45	8.91	> 200	4.16 ± 0.08
COc1c(O)cc2oc3ccc(O)c(OC)c3c(=O)c2c1OC [Compound 9, 3,7-dihydroxy-1,2,8-trimethoxy-9H-xanthen-9-one]		>37.59	5.32	> 200	18.4 ± 0.21
COc1cc(O)c2c(=O)c3c(OC)c(OC)c(O)cc3oc2c1 [Compound 10, 3,8-dihydroxy-1,2,6-trimethoxy-9H-xanthen-9-one]		>74.91	2.67	> 200	7.47 ± 0.11
COc1cc2oc3c(O)ccc(OC)c3c(=O)c2c(O)c1OC [Compound 11, 1,5-dihydroxy-2,3,8-trimethoxy-9H-xanthen-9-one]		>17.81	11.2	> 200	3.16 ± 0.09
COc1c(O)cc2oc3cc(O)c(OC)c(OC)c3c(=O)c2c1O [Compound 12, 1,3,6-trihydroxy-2,7,8-trimethoxy-9H-xanthen-9-one]		>31.50	6.35	> 200	6.21 ± 0.08
C[C@]12CCC(=O)C=C1CC[C@@H]1[C@@H]2[C@@H](O)C[C@@]2(C)[C@H]1CC[C@]2(O)C(=O)CO [Hydrocortisone, reference compound]					4.08 ± 0.08
